# Experiments:
# [1] = tested on: ALOMY; experiment: Pre-emergence action against ALOMY, 1280 g/ha; type: in vivo, Alopecurus myosuroides; conditions: visual scoring after about 3 weeks vs untreated controls, 100% = plants have died, 0% = like control plants
# How it was run: (§1)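 Percent herbicidal effect, judged by eye relative to untreated pots around 3 weeks after soil-surface treatment. Application: formulated compound in water, 600 L/ha, 0.5% additive, on soil over sown seeds; greenhouse.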
# [2] = tested on: DIGSA; experiment: Pre-emergence action against DIGSA, 1280 g/ha; type: in vivo, Digitaria sanguinalis; conditions: visual scoring after about 3 weeks vs untreated controls, 100% = plants have died, 0% = like control plants
# How it was run: as §1
# [3] = tested on: ECHCG; experiment: Pre-emergence action against ECHCG, 1280 g/ha; type: in vivo, Echinochloa crus-galli; conditions: visual scoring after about 3 weeks vs untreated controls, 100% = plants have died, 0% = like control plants
# How it was run: as §1
# [4] = tested on: LOLRI; experiment: Pre-emergence action against LOLRI, 1280 g/ha; type: in vivo, Lolium rigidum; conditions: visual scoring after about 3 weeks vs untreated controls, 100% = plants have died, 0% = like control plants
# How it was run: as §1
# [5] = tested on: POAAN; experiment: Pre-emergence action against POAAN, 1280 g/ha; type: in vivo, Poa annua; conditions: visual scoring after about 3 weeks vs untreated controls, 100% = plants have died, 0% = like control plants
# How it was run: as §1
# [6] = tested on: SETVI; experiment: Pre-emergence action against SETVI, 1280 g/ha; type: in vivo, Setaria viridis; conditions: visual scoring after about 3 weeks vs untreated controls, 100% = plants have died, 0% = like control plants
# How it was run: as §1
# [7] = tested on: ABUTH; experiment: Pre-emergence action against ABUTH, 1280 g/ha; type: in vivo, Abutilon theophrasti; conditions: scored visually after about 3 weeks vs untreated controls (100% = plants have died)
# How it was run: as §1
# [8] = tested on: AMARE; experiment: Pre-emergence action against AMARE, 1280 g/ha; type: in vivo, Amaranthus retroflexus; conditions: scored visually after about 3 weeks vs untreated controls (100% = plants have died)
# How it was run: as §1
# [9] = tested on: KCHSC; experiment: Pre-emergence action against KCHSC, 1280 g/ha; type: in vivo, Bassia scoparia; conditions: scored visually after about 3 weeks vs untreated controls (100% = plants have died)
# How it was run: as §1
# [10] = tested on: MATIN; experiment: Pre-emergence action against MATIN, 1280 g/ha; type: in vivo, Tripleurospermum inodorum (Matricaria inodora); conditions: scored visually after about 3 weeks vs untreated controls (100% = plants have died)
# How it was run: as §1
# [11] = tested on: STEME; experiment: Pre-emergence action against STEME, 1280 g/ha; type: in vivo, Stellaria media; conditions: scored visually after about 3 weeks vs untreated controls (100% = plants have died)
# How it was run: as §1
# [12] = tested on: VERPE; experiment: Pre-emergence action against VERPE, 1280 g/ha; type: in vivo, Veronica persica; conditions: scored visually after about 3 weeks vs untreated controls (100% = plants have died)
# How it was run: as §1
# [13] = tested on: ALOMY; experiment: Pre-emergence action at 320 g/ha against ALOMY; type: in vivo, Alopecurus myosuroides; conditions: scored visually after about 3 weeks vs untreated controls (100% = plants have died)
# How it was run: (§2)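 Sow seeds, cover with soil, spray soil surface (WP/EC, 0.5% additive, 600 l/ha water), hold in greenhouse ~3 wk, then rate % activity visually against untreated controls.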
# [14] = tested on: AVEFA; experiment: Pre-emergence action at 320 g/ha against AVEFA; type: in vivo; conditions: visual scoring after about 3 weeks vs untreated controls
# How it was run: as §2
# [15] = tested on: DIGSA; experiment: Pre-emergence action at 320 g/ha against DIGSA; type: in vivo, Digitaria sanguinalis; conditions: visual scoring after about 3 weeks vs untreated controls
# How it was run: as §2
# [16] = tested on: ECHGC; experiment: Pre-emergence action at 320 g/ha against ECHGC; type: in vivo, Echinochloa crus-galli; conditions: visual scoring after about 3 weeks vs untreated controls
# How it was run: as §2
# [17] = tested on: LOLRI; experiment: Pre-emergence action at 320 g/ha against LOLRI; type: in vivo, Lolium rigidum; conditions: visual scoring after about 3 weeks vs untreated controls
# How it was run: as §2
# [18] = tested on: SETVI; experiment: Pre-emergence action at 320 g/ha against SETVI; type: in vivo, Setaria viridis; conditions: visual scoring after about 3 weeks vs untreated controls
# How it was run: as §2
# [19] = tested on: AMARE; experiment: Pre-emergence action at 320 g/ha against AMARE; type: in vivo, Amaranthus retroflexus; conditions: visual scoring after about 3 weeks vs untreated controls
# How it was run: as §2
# [20] = tested on: MATIN; experiment: Pre-emergence action at 320 g/ha against MATIN; type: in vivo, Tripleurospermum inodorum (Matricaria inodora); conditions: visual scoring after about 3 weeks vs untreated controls
# How it was run: as §2
# [21] = tested on: PHBPU; experiment: Pre-emergence action at 320 g/ha against PHBPU; type: in vivo; conditions: visual scoring after about 3 weeks vs untreated controls
# Source text: b) Seeds of monocotyledonous and dicotyledonous weed plants and crop plants are placed in plastic or organic planting pots and covered with soil. The compounds of the invention, formulated in the form of wettable powders (WP) or as emulsion concentrates (EC), are then applied onto the surface of the covering soil as aqueous suspension or emulsion with addition of 0.5% additive at a water application rate of 600 l/ha (converted). After the treatment, the pots are placed in a greenhouse and kept under good growth conditions for the trial plants. After about 3 weeks, the effect of the preparations is scored visually in comparison with untreated controls as percentages. For example, 100% activity=the plants have died, 0% activity=like control plants. Tables 13 to 26 below show the effects of selected compounds of the general formula (I) on various harmful plants and at an application rate corresponding to 320 g/ha, which were obtained by the experimental procedure mentioned above.
# [22] = tested on: POLCO; experiment: Pre-emergence action at 320 g/ha against POLCO; type: in vivo, Fallopia convolvulus (Polygonum convolvulus); conditions: visual scoring after about 3 weeks vs untreated controls
# How it was run: as §2
# [23] = tested on: VERPE; experiment: Pre-emergence action at 320 g/ha against VERPE; type: in vivo, Veronica persica; conditions: visual scoring after about 3 weeks vs untreated controls
# How it was run: as §2
# [24] = tested on: VIOTR; experiment: Pre-emergence action at 320 g/ha against VIOTR; type: in vivo, Viola tricolor; conditions: dosage 320 g/ha
# How it was run: as §2
# [25] = tested on: ALOMY; experiment: Post-emergence action against ALOMY, 1.28 kg/ha; type: in vivo, Alopecurus myosuroides; conditions: dosage 1280 g/ha, visual rating about 3 weeks after treatment vs untreated controls
# How it was run: (§3)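 Post-emergence greenhouse spray, one-leaf stage (2–3 wk after sowing), sandy loam. WP/EC, aqueous + 0.5% additive, 600 L/ha water. Visual % activity vs untreated, ~3 wk after treatment; 100% = plants dead.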
# [26] = tested on: DIGSA; experiment: Post-emergence action against DIGSA, 1.28 kg/ha; type: in vivo, Digitaria sanguinalis; conditions: dosage 1280 g/ha, visual rating about 3 weeks after treatment vs untreated controls
# How it was run: as §3
# [27] = tested on: ECHCG; experiment: Post-emergence action against ECHCG, 1.28 kg/ha; type: in vivo, Echinochloa crus-galli; conditions: dosage 1280 g/ha, visual rating about 3 weeks after treatment vs untreated controls
# How it was run: as §3
# [28] = tested on: LOLRI; experiment: Post-emergence action against LOLRI, 1.28 kg/ha; type: in vivo, Lolium rigidum; conditions: dosage 1280 g/ha, visual rating about 3 weeks after treatment vs untreated controls
# How it was run: as §3
# [29] = tested on: POAAN; experiment: Post-emergence action against POAAN, 1.28 kg/ha; type: in vivo, Poa annua; conditions: dosage 1280 g/ha, visual rating about 3 weeks after treatment vs untreated controls
# How it was run: as §3
# [30] = tested on: SETVI; experiment: Post-emergence action against SETVI, 1.28 kg/ha; type: in vivo, Setaria viridis; conditions: dosage 1280 g/ha, visual rating about 3 weeks after treatment vs untreated controls
# How it was run: as §3
# [31] = tested on: ABUTH; experiment: Post-emergence action against ABUTH, 1.28 kg/ha; type: in vivo, Abutilon theophrasti; conditions: dosage 1280 g/ha, visual rating about 3 weeks after treatment vs untreated controls (100% = plants died)
# How it was run: as §3
# [32] = tested on: AMARE; experiment: Post-emergence action against AMARE, 1.28 kg/ha; type: in vivo, Amaranthus retroflexus; conditions: dosage 1280 g/ha, visual rating about 3 weeks after treatment vs untreated controls (100% = plants died)
# How it was run: as §3
# [33] = tested on: MATIN; experiment: Post-emergence action against MATIN, 1.28 kg/ha; type: in vivo, Tripleurospermum inodorum (Matricaria inodora); conditions: dosage 1280 g/ha, visual rating about 3 weeks after treatment vs untreated controls (100% = plants died)
# How it was run: as §3
# [34] = tested on: STEME; experiment: Post-emergence action against STEME, 1.28 kg/ha; type: in vivo, Stellaria media; conditions: dosage 1280 g/ha, visual rating about 3 weeks after treatment vs untreated controls (100% = plants died)
# How it was run: as §3
# [35] = tested on: VERPE; experiment: Post-emergence action against VERPE, 1.28 kg/ha; type: in vivo, Veronica persica; conditions: dosage 1280 g/ha, visual rating about 3 weeks after treatment vs untreated controls (100% = plants died)
# How it was run: as §3
smiles,measurement,setting,value
N#CCCOC(=O)COc1nn(-c2ccccc2F)c(-c2ccc(F)nc2)c1Br [VII-110],Pre-emergence action against ALOMY,[1],100%
same,Pre-emergence action against DIGSA,[2],100%
same,Pre-emergence action against ECHCG,[3],100%
same,Pre-emergence action against LOLRI,[4],100%
same,Pre-emergence action against POAAN,[5],100%
same,Pre-emergence action against SETVI,[6],100%
same,Pre-emergence action against ABUTH,[7],90%
same,Pre-emergence action against AMARE,[8],100%
same,Pre-emergence action against KCHSC,[9],90%
same,Pre-emergence action against MATIN,[10],100%
same,Pre-emergence action against STEME,[11],100%
same,Pre-emergence action against VERPE,[12],100%
same,Pre-emergence action at 320 g/ha against ALOMY in %,[13],100%
same,Pre-emergence action against AVEFA in %,[14],80%
same,Pre-emergence action against DIGSA in %,[15],100%
same,Pre-emergence action against ECHGC in %,[16],100%
same,Pre-emergence action against LOLRI in %,[17],100%
same,Pre-emergence action against SETVI in %,[18],100%
same,Pre-emergence action against AMARE in %,[19],100%
same,Pre-emergence action against MATIN in %,[20],100%
same,Pre-emergence action against PHBPU in %,[21],90%
same,Pre-emergence action against POLCO in %,[22],100%
same,Pre-emergence action against VERPE in %,[23],100%
same,Pre-emergence action against VIOTR in %,[24],100%
same,Post-emergence action against ALOMY,[25],100%
same,Post-emergence action against DIGSA,[26],100%
same,Post-emergence action against ECHCG,[27],100%
same,Post-emergence action against LOLRI,[28],100%
same,Post-emergence action against POAAN,[29],100%
same,Post-emergence action against SETVI,[30],90%
same,Post-emergence action against ABUTH,[31],90%
same,Post-emergence action against AMARE,[32],90%
same,Post-emergence action against MATIN,[33],100%
same,Post-emergence action against STEME,[34],100%
same,Post-emergence action against VERPE,[35],100%
O=C(O)COc1nn(-c2ccccc2F)c(-c2ccc(F)nc2)c1F [VII-115],Pre-emergence action at 320 g/ha against ALOMY in %,[13],100%
same,Pre-emergence action against AVEFA in %,[14],90%
same,Pre-emergence action against DIGSA in %,[15],100%
same,Pre-emergence action against LOLRI in %,[17],90%
same,Pre-emergence action against SETVI in %,[18],100%
same,Pre-emergence action against AMARE in %,[19],100%
same,Pre-emergence action against PHBPU in %,[21],90%
same,Pre-emergence action against POLCO in %,[22],80%
same,Pre-emergence action against VERPE in %,[23],90%
same,Pre-emergence action against VIOTR in %,[24],100%
C[C@@H](Oc1nn(-c2ccccc2F)c(-c2cncc(F)c2)c1Br)C(=O)O [VII-128],Pre-emergence action at 320 g/ha against ALOMY in %,[13],100%
same,Pre-emergence action against AVEFA in %,[14],80%
same,Pre-emergence action against DIGSA in %,[15],100%
same,Pre-emergence action against ECHGC in %,[16],90%
same,Pre-emergence action against LOLRI in %,[17],100%
same,Pre-emergence action against SETVI in %,[18],100%
same,Pre-emergence action against AMARE in %,[19],100%
same,Pre-emergence action against MATIN in %,[20],90%
same,Pre-emergence action against PHBPU in %,[21],90%
same,Pre-emergence action against POLCO in %,[22],90%
same,Pre-emergence action against VERPE in %,[23],100%
same,Pre-emergence action against VIOTR in %,[24],100%
